Data from patent publication US9238658B2, “Substituted piperidinyl-carboxamide derivatives useful as SCD 1 inhibitors” (Janssen Pharmaceutica NV, priority 2011, dated 2016).
Several values for one entry are separate records, joined by “and”; a condition that tells them apart may be missing. Identical values can stand only once. Marks after values point to notes of the source that are not given here.

Columns and labels:
[1] = 10-day diet-induced obese C57bl/6 mice study; format: in vivo; settings: DIO C57BL/6J mice, oral, 10 days
Description: Male DIO C57BL/6J mice from Taconic were maintained on high fat diet D12492 containing 60% kCal of mostly saturated fats (Research Diets Inc.) for 4 week from 6-week old. Test compounds were prepared in 0.5% hydroxypropyl methyl cellulose for oral dosing at 10 mg/kg or 30 mg/kg, either q.d. or b.i.d., as noted in the results table below. After 10-days of treatment, body weight change are recorded. Plasma liver enzyme levels (ALT and AST) were also determined.
Compound #6 of the present invention was tested according to the procedure as described above, with results as listed in Table 4, below. In the results presented below, * indicates a calculated p value<0.05 vs. vehicle-treated group.

SCD1 [2] = molecular target: SCD1 (Rattus norvegicus (Rat), UniProt P07308); test: SCD1 enzymatic assay in rat liver microsomes (RLM); format: biochemical
SCD1 [3] = molecular target: T1, SCD1 (Homo sapiens (Human), UniProt O00767); test: SCD1 14C-palmitate assay in A431 cells; format: cell-based; settings: read-out: A431 cells 14C-PA IC50
Description: Human epithelial carcinoma A431 cells were seeded at 400,000 cells per well in 48-well tissue culture plate and treated with 2 cycles of fasting in low glucose medium (DMEM, Cellgro #10-014-CV, 1 g/L glucose, 2% Charcoal Filtered FBS) for 24 hours; and re-feeding with high glucose medium for 24 hours (DMEM, Cellgro #10-013-CM, 4.5 g/L glucose, 10% Charcoal Filtered FBS and 0.05 mg/mL Lilly Humulin R, Cat.#, HI-210). Prior to running the assay, the cells were washed twice with high glucose medium (400 μL), followed by addition of 250 μL assay buffer (DMEM, 4.5 g/L glucose, 0.05 mg/mL Human Insulin, 0.1% Fatty Acid Free BSA) to each well. Then, 100 μL of assay buffer containing 20 μM Palmitic Acid, 0.05 μCi ^14C Palmitic Acid (Perkin Elmer, NEC075H) and test compound (at selected concentration) was added to each well. The cells were then Incubated at 37° C. and 5% CO2 tissue culture incubator for 4 hours, followed by extensive washes with pre-chilled PBS. The cell plates were then frozen at −20° C. overnight. After thawing out the plates, 100 μL of 1N KOH was added to each well and the plates were incubated at 37° C. for 30 mins. Cell lysates were transferred to 1 mL Eppendorf tubes and incubated at 95° C. for 1 hour, followed by addition of 10 μL formic acid and 220 μL acetonitrile. The tubes were then centrifuged at 12,000 rpm and the supernatant dried under N2 for 2-3 hours. Dried extract was re-suspended in 60 μL hexane and loaded onto TLC plates (pre-coated with 10% AgNO3 in acetonitrile). The TLC plates were placed into glass running chamber containing 200 mL running solution (100 mL running solution: 92.5 mL chloroform, 6 mL methanol, 750 μL acetic acid, 750 μL dH2O). After running, the TLC plates were air dried and scanned on Bioscan AR-2000 for quantification of ^14C-palmitioleate and ^14C-palmitate peaks. Area under the curve of the peaks were used to calculate product/substrate ratio, an index of SCD1 activity.

SCD1 [4] = molecular target: T1, SCD1; test: SCD1 13C-palmitic acid assay in A431 cells; format: cell-based; settings: read-out: A431 cells 13C-PA IC50
Description: Human epithelial carcinoma A431 cells were seeded at 100,000 cells/well in complete growth medium (DMEM, Cellgro #10-013-CM, 4.5 g/L glucose, 10% FBS) in the presence of 0.05 mg/mL human insulin (Hannas Pharmaceutical Supply Co Inc, Humanlin 100 U/ml, 4 mg/ml) in 96-well tissue culture plate. […] The cells were then returned to the tissue culture incubator (37° C. and 5% CO2) for 4 hrs. At the end of incubation, the cells were washed three times with 200 μL/well Hanks buffer (HBSS) and then stored at −20° C. until extraction.
For fatty acid extraction, after thawing out the plates, 40 μL of 1N KOH (containing 5 μM of internal standard 7,7,8,8-D4 palmitate) was added to each well and cell plates were incubated at 37° C. for 30 minutes. […] Acetonitrile (100 μL) was then added to extract fatty acids, followed by centrifugation at 3000 rpm for 10 minutes. 75 μL of extract was then transferred to a new glass vial in a 96-well cluster plate. 5 μL was injected for LC/MS analysis for detection of ^13C-palmitic acid and ^13C-palmitoleic acid. Formation of product ^13C-palmitoleic acid was determined as an index of SCD1 activity.
LC/MS analysis was performed as following. An Agilent 1100 Liquid Chromatographic System (Palo Alto, Calif.) consisting of a binary pump, a degasser and an autosampler was used. Separation of free fatty acids was performed on a Zorbax SB—C8 column (2.1×50 mm, particle size=3.5 μm). An isocratic elution was carried out with 10 mM triethylamine acetate in water:acetonitrile (3:7) at a flow rate of 0.3 mL/min. The column temperature was set at 30° C. and the sample injection volume was 5 μL. The LC run cycle was 4 min, A Micromass triple-quadrupole Quattro Micro mass […] (Waters, Beverly, Mass.) was interfaced with the LC system through a Z-spray electrospray ion source and was operated in the negative ion mode. Nitrogen was used as nebulizing gas, desolvation gas and cone curtain gas and argon was chosen as collision gas. The triple quadrupole MS source parameters were set as follows: capillary voltage, 3200V; cone voltage, 25V; extractor 2V, source temperature, 120° C.; desolvation temperature, 300° C.; cone gas flow, 50 L/h; and desolvation gas flow, 700 L/h. […] MassLynx software version 4.0 was used for system control and data processing. The signal of U—^13C-palmitoleic acid was normalized to an internal standard.

SCD1 (Rattus norvegicus (Rat), UniProt P07308), sequence (P07308 whole entry): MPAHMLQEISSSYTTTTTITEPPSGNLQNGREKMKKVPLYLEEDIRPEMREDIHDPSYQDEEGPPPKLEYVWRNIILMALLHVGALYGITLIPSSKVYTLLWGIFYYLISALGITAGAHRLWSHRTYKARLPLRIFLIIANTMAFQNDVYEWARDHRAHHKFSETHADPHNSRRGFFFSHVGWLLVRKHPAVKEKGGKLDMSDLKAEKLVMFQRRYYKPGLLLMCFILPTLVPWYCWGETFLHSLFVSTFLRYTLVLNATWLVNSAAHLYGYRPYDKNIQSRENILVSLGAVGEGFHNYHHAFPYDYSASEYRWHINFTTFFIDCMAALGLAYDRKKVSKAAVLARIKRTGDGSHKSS
T1 sequence (O00767 whole entry): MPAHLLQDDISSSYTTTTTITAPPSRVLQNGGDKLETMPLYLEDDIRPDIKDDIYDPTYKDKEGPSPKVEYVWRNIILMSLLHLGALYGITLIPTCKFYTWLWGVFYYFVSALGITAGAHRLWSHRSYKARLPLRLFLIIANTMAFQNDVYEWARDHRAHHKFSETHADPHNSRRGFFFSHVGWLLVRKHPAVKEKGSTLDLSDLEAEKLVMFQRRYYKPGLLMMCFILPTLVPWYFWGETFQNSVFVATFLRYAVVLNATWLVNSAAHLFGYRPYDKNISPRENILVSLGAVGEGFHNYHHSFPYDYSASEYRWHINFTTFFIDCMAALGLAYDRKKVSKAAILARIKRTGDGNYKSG

With `Cc1csc(NC(=O)N2CCC(c3noc4ccc(F)cc34)CC2)n1` [Compound 6, 4-(5-fluorobenzo[d]isoxazol-3-yl)-N-(4-methylthiazol-2-yl)-piperidine-1-carboxamide] the “Body weight change (g)” value ([1]; 10 mg/kg, q.d) was 0.00 ± 0.36* g, the “Plasma ALT (U/L)” value ([1]; 10 mg/kg, q.d) was 57 ± 7 U/L and the “Plasma AST (U/L)” value ([1]; 10 mg/kg, q.d) was 89 ± 7 U/L. The “Body weight change (g)” value ([1]; 30 mg/kg, bid) was −0.69 ± 0.38 * g, the “Plasma ALT (U/L)” value ([1]; 30 mg/kg, bid) was 41 ± 3 U/L and the “Plasma AST (U/L)” value ([1]; 30 mg/kg, bid) was 102 ± 17 U/L. For the same compound, the “Body weight change (g)” value ([1]; 30 mg/kg, q.d) was 0.01 ± 0.24* g, the “Plasma ALT (U/L)” value ([1]; 30 mg/kg, q.d) was 68 ± 12 U/L and the “Plasma AST (U/L)” value ([1]; 30 mg/kg, q.d) was 93 ± 7 U/L. The IC50 (SCD1 [2]) was 140 nM, the “% Inh. @ 1 μM” value (SCD1 [2]; 1 μM test compound) was 95% and 77% and the inhibition at 1 µM (SCD1 [2]; 1 μM test compound) was 88%. The IC50 (SCD1 [3]) was 290 nM and the IC50 (SCD1 [4]) was 54 nM.
